Results: patent US20250195521A1 (Revolution Medicines, Inc., priority 2020, published 2025)
Where “and” joins values, the source holds several entries; their conditions need not be identical. Identical values can stand only once. Like-named read-outs stand apart in the source and are kept apart here.

Legend:
KRAS G12C = KRAS G12C (Homo sapiens (Human), UniProt P01116+P62937, G12C); assay: Ras-Raf disruption/FRET/MOA assay (BRAF RBD, Cyclophilin A); assay type: biochemical; conditions: read-out: KRAS G12C FRET IC50
In short: (§1)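 His6-K-Ras-GMPPNP (12.5 nM), GST-BRAF RBD (50 nM) and tagless Cyclophilin A (25 μM) were combined in 25 mM HEPES pH 7.3 with 100 mM NaCl, 5 mM MgCl2, 0.1% BSA and 0.002% Tween20, with compound as a 10-point 3-fold series from 30 μM final, then incubated 3 h at 25° C.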

KRAS G12D = KRAS G12D (Homo sapiens (Human), UniProt P01116+P62937, G12D); assay: as above; assay type: biochemical; conditions: read-out: KRAS G12D FRET IC50
In short: as §1

KRAS G12S = KRAS G12S (Homo sapiens (Human), UniProt P01116+P62937, G12S); assay: as above; assay type: biochemical; conditions: read-out: KRAS G12S FRET IC50
In short: as §1

KRAS G12V = KRAS G12V (Homo sapiens (Human), UniProt P01116+P62937, G12V); assay: as above; assay type: biochemical; conditions: read-out: KRAS G12V FRET IC50
In short: as §1

KRAS G13C = KRAS G13C (Homo sapiens (Human), UniProt P01116+P62937, G13C); assay: as above; assay type: biochemical; conditions: read-out: KRAS G13C FRET IC50
In short: as §1

KRAS G13D = KRAS G13D (Homo sapiens (Human), UniProt P01116+P62937, G13D); assay: as above; assay type: biochemical; conditions: read-out: KRAS G13D FRET data IC50
In short: as §1

KRAS WT = KRAS WT (Homo sapiens (Human), UniProt P01116+P62937); assay: as above; assay type: biochemical; conditions: read-out: KRAS WT FRET data IC50
In short: as §1

NRAS G12C = NRAS G12C (Homo sapiens (Human), UniProt P01111+P62937, G12C); assay: as above; assay type: biochemical; conditions: read-out: NRAS G12C FRET data IC50
In short: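 TR-FRET readout: anti-His Eu-W1024 (10 nM) and anti-GST allophycocyanin (50 nM) added after 3 h, 25° C compound incubation, then 1.5 h more. Decrease in FRET ratio versus DMSO wells marks Ras:RAF disruption; IC50 reported.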

NCI-H358 (K-Ras G12C) = assay: CellTiter-Glo cell viability assay, NCI-H358; assay type: cell-based, human; conditions: Homo sapiens, NCI-H358, 120 h, 5-day treatment; read-out: H358 Cell Viability assay data (K-Ras G12C, IC50)
In short: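 Cells seeded, compound added directly to plates; day 5: plates to RT ~30 min, CellTiter-Glo luminescence; (sample/avg DMSO)*100; 4-parameter fit.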

[1] = system: NCI-H358 cells (K-Ras G12C); assay: CellTiter-Glo cell viability, NCI-H358; assay type: cell-based, human; conditions: Homo sapiens, NCI-H358, 120 h, read-out: H358 Cell Viability IC50
Protocol: Note—The following protocol describes a procedure for monitoring cell viability of K-Ras mutant cancer cell lines in response to a compound of the invention. Other RAS isoforms may be employed, though the number of cells to be seeded will vary based on cell line used.
Test compounds (132.5 nl) were directly dispensed into the assay plates containing cells. […] On day 5, assay plates and their contents were equilibrated to room temperature for approximately 30 minutes. […] Luminescence was measured using the PerkinElmer Enspire. Data were normalized by the following: (Sample signal/Avg. DMSO)*100. The data were fit using a four-parameter logistic fit.

[2] = system: Capan-1 cells (K-Ras G12V); assay: CellTiter-Glo cell viability, Capan-1; assay type: cell-based, human; conditions: Homo sapiens, CAPAN-1, 120 h, K-Ras G12V, 5-day treatment; read-out: Capan-1 Cell Viability IC50
In short: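 Cells seeded, compound dispensed straight into wells, 5-day exposure. Plates brought to room temperature ~30 min, CellTiter-Glo luminescence measured. Normalized to DMSO (%), 4-parameter logistic fit.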

[3] = system: K-Ras G12C (NCI-H358 cells); assay: Potency assay: pERK in NCI-H358 cells; assay type: cell-based, human; conditions: Homo sapiens; NCI-H358 cells, 4 hours; read-out: pERK EC50 (H358 KRAS G12C)
In short: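 Cells plated the day before were exposed for 4 h at 37° C, 5% CO2 to a 10-point, 3-fold DMSO dilution series (10 mM top stock), in duplicate. Phospho-ERK was read by AlphaLISA SureFire Ultra or by In-Cell Western with DRAQ5 DNA stain, and IC50 came from a 4-parameter sigmoidal fit.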

Chain of KRAS G12D (P01116 other isoform, or with tags, fused parts or gaps G12D): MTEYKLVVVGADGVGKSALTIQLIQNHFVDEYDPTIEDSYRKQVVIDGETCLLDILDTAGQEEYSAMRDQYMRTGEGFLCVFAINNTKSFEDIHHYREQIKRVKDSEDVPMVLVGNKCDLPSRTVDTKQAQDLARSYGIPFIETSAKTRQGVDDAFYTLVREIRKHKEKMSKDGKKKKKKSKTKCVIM
Chain of KRAS G12D (P62937 whole entry): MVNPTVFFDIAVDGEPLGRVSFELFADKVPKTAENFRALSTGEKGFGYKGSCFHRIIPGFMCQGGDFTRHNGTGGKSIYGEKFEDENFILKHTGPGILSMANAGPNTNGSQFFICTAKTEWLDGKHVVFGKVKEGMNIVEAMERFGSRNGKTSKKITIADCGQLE
Chain of KRAS G12C (P01116-2 other isoform, or with tags, fused parts or gaps G12C): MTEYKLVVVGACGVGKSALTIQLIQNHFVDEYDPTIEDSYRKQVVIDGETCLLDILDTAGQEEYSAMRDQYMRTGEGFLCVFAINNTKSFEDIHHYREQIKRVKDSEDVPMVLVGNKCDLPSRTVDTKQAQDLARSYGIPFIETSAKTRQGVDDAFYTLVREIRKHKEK
Chain of KRAS G12C (P62937 whole entry): as the sequence (P62937 whole entry) above
Chain of KRAS WT (P01116 other isoform, or with tags, fused parts or gaps): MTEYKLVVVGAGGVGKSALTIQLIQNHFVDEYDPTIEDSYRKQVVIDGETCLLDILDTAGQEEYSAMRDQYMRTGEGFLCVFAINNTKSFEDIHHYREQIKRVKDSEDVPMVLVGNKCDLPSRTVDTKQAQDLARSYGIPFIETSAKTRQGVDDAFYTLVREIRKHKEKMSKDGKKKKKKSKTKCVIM
Chain of KRAS WT (P62937 whole entry): as the sequence (P62937 whole entry) above
Chain of NRAS G12C (P01111 whole entry G12C): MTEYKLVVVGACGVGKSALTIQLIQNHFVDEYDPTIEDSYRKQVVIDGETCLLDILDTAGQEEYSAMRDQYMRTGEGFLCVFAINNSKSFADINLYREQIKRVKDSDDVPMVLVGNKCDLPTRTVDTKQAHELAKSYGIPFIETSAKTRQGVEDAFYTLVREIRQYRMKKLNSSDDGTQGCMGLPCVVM
Chain of NRAS G12C (P62937 whole entry): as the sequence (P62937 whole entry) above
Chain of KRAS G12V (P01116 other isoform, or with tags, fused parts or gaps G12V): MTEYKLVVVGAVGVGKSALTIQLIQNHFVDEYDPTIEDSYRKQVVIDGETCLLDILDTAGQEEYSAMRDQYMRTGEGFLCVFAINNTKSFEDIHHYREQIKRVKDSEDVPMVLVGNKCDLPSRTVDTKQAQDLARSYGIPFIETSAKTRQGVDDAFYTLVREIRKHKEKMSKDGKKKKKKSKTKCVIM
Chain of KRAS G12V (P62937 whole entry): as the sequence (P62937 whole entry) above
Chain of KRAS G12S (P01116 other isoform, or with tags, fused parts or gaps G12S): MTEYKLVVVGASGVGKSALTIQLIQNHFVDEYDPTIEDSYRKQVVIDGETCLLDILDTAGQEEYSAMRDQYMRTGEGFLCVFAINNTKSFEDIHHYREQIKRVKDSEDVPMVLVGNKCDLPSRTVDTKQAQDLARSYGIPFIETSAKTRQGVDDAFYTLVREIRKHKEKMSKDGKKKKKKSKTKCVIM
Chain of KRAS G12S (P62937 whole entry): as the sequence (P62937 whole entry) above
Chain of KRAS G13D (P01116 other isoform, or with tags, fused parts or gaps G13D): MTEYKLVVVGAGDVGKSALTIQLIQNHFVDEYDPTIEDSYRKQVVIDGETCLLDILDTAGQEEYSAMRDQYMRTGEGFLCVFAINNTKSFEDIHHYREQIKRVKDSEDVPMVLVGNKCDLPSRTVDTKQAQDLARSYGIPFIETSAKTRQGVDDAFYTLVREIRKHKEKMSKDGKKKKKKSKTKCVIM
Chain of KRAS G13D (P62937 whole entry): as the sequence (P62937 whole entry) above
Chain of KRAS G13C (P01116 other isoform, or with tags, fused parts or gaps G13C): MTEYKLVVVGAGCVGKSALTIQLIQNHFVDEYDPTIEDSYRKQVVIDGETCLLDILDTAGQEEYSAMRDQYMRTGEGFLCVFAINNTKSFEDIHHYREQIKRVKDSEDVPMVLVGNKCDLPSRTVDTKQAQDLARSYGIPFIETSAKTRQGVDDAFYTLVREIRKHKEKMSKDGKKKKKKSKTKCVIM
Chain of KRAS G13C (P62937 whole entry): as the sequence (P62937 whole entry) above

| Structure (SMILES) | IC50 (KRAS G12C) | IC50 (KRAS G12D) | IC50 (KRAS G12S) | IC50 (KRAS G12V) | IC50 (KRAS G13C) | IC50 (KRAS G13D) | IC50 (KRAS WT) | IC50 (NRAS G12C) | IC50 (NCI-H358 (K-Ras G12C)) | EC50 [3] | IC50 ([1]; K-Ras G12C, 5-day treatment) | IC50 [1] | IC50 [2] |
| --- | --- | --- | --- | --- | --- | --- | --- | --- | --- | --- | --- | --- | --- |
| CCn1c(-c2cnccc2COC)c2c3cc(ccc31)-c1cc(O)cc(c1)C[C@H](NC(=O)[C@H](C(C)C)N(C)C(=O)OC1CCOC1)C(=O)N1CCC[C@H](N1)C(=O)OCC(C)(C)C2 (stereo partly drawn) [Compound A50, oxolan-3-yl-N-[(1S)-1-{[(8S,14S)-22-ethyl-4-hydroxy-21-[4-(methoxymethyl)pyridin-3-yl]-18,18-dimethyl-9,15-dioxo-16-oxa-10,22,28-triazapentacyclo [18.5.2.1^2,6.1^10,14.0^23,27]nonacosa-1 (26),2,4,6 (29),20,23 (27),24-heptaen-8-yl]carbamoyl}-2-methylpropyl]-N-methylcarbamate] | – | – | – | – | – | – | – | – | – | – | – | 1000 to 10000 nM | – |
| CCn1c(-c2cnccc2COC)c2c3cc(ccc31)-c1cc(O)cc(c1)C[C@H](NC(=O)[C@H](C(C)C)N(C)C(=O)C1CNC1)C(=O)N1CCC[C@H](N1)C(=O)OCC(C)(C)C2 [Compound A87] | 100 to 1000 nM and 10 to 100 nM | 100 to 1000 nM | 100 to 1000 nM and 10 to 100 nM | 100 to 1000 nM and 1000 to 10000 nM | 100 to 1000 nM and 10 to 100 nM | 10 to 100 nM and 100 to 1000 nM | 10 to 100 nM and 100 to 1000 nM | 10 to 100 nM and 100 to 1000 nM | 10 to 100 nM | < 5000 nM | – | – | > 10000 nM |
| CCn1c(-c2cccnc2[C@H](C)OC)c2c3cc(ccc31)-c1cc(O)cc(c1)C[C@H](NC(=O)[C@H](C(C)C)N(C)C(=O)[C@H]1CC1(C)C)C(=O)N1CCC[C@H](N1)C(=O)OCC(C)(C)C2 [Compound A158] | 100 to 1000 nM | 100 to 1000 nM | 100 to 1000 nM | 100 to 1000 nM | 100 to 1000 nM | 100 to 1000 nM | 100 to 1000 nM | 100 to 1000 nM | – | < 5000 nM | – | – | 1000 to 10000 nM |
| CCn1c(-c2cccnc2[C@H](C)OC)c2c3cc(ccc31)-c1cc(O)cc(c1)C[C@H](NC(=O)[C@H]1C[C@@H]1C)C(=O)N1CCC[C@H](N1)C(=O)OCC(C)(C)C2 [Compound A182] | 100 to 1000 nM | > 10000 nM | 1000 to 10000 nM | 1000 to 10000 nM | 100 to 1000 nM | 1000 to 10000 nM | 1000 to 10000 nM | 1000 to 10000 nM | – | < 5000 nM | – | – | 1000 to 10000 nM |

Further lines, with some results ahead:

| IC50 (KRAS G12C) | IC50 (KRAS G12D) | IC50 (KRAS G12S) | IC50 (KRAS G12V) | IC50 (KRAS G13C) | IC50 (KRAS G13D) | IC50 (KRAS WT) | IC50 (NRAS G12C) | IC50 (NCI-H358 (K-Ras G12C)) | EC50 [3] | IC50 ([1]; K-Ras G12C, 5-day treatment) | Structure (SMILES) | IC50 [1] | IC50 [2] |
| --- | --- | --- | --- | --- | --- | --- | --- | --- | --- | --- | --- | --- | --- |
| 100 to 1000 nM | 1000 to 10000 nM | 1000 to 10000 nM | 100 to 1000 nM | 1000 to 10000 nM | 1000 to 10000 nM | 100 to 1000 nM | 1000 to 10000 nM | > 10000 nM | – | – | CCn1c(-c2cnccc2COC)c2c3cc(ccc31)-c1cc(O)cc(c1)C[C@H](NC(=O)[C@H](C(C)C)N(C)C(=O)C1(C)COC1)C(=O)N1CCC[C@H](N1)C(=O)OCC(C)(C)C2 [Compound A49] | – | – |
| – | – | – | – | – | – | – | – | – | – | 100 to 1000 nM | CCn1c(-c2cccnc2[C@H](C)OC)c2c3cc(ccc31)-c1csc(n1)C[C@H](NC(=O)[C@H](C(C)C)N(C)C(=O)O[C@H]1CCN(C)C1)C(=O)N1CCC[C@H](N1)C(=O)OCC(C)(C)C2 [Compound A173] | – | – |
| 10 to 100 nM | 100 to 1000 nM | 10 to 100 nM | 10 to 100 nM | 10 to 100 nM | 10 to 100 nM | 10 to 100 nM | 10 to 100 nM | – | < 5000 nM | – | CCn1c(-c2cccnc2[C@H](C)OC)c2c3cc(ccc31)-c1csc(n1)C[C@H](NC(=O)[C@H](C(C)C)N(C)C(=O)N1[C@H](C)COC[C@H]1C)C(=O)N1CCC[C@H](N1)C(=O)OCC(C)(C)C2 [Compound A275] | – | 100 to 1000 nM |
